PubChem BioAssay AID330 (DTP/NCI, 2004)
“And” between values parts separate entries of the source, which are not always exact repeats. Equal entries are not always repeated. Toxic doses and inconclusive results are not listed. How the source made its calls: active means survival T/C of 150% or more; inactive means T/C below 125% in these data.

System: P388 leukemia ip, CD2F1 mice, survival T/C
Assay: NCI In Vivo Anticancer Drug Screen. Data for tumor model P388 Leukemia (intraperitoneal) in CD2F1 (CDF1) mice
Details: endpoint: median survival time, higher = longer survival
Summary of the method: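 Mice carrying the transplanted tumor received test compound or vehicle. Survival was recorded in each group, and the value is the treated-group measurement divided by that of the vehicle-treated control group.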

[1] = dose: 100.0 mg/kg/injection, schedule: Q04DX002 (ip), vehicle: Klucel (hydroxypropylcellulose) (HPC)
[2] = dose: 200.0 mg/kg/injection, schedule: Q04DX002 (ip), vehicle: Klucel (hydroxypropylcellulose) (HPC)
[3] = dose: 400.0 mg/kg/injection, schedule: Q04DX002 (ip), vehicle: Klucel (hydroxypropylcellulose) (HPC)
[4] = dose: 50.0 mg/kg/injection, schedule: Q01DX009 (ip), vehicle: saline with Tween-80
[5] = dose: 100.0 mg/kg/injection, schedule: Q01DX009 (ip), vehicle: saline with Tween-80
[6] = dose: 200.0 mg/kg/injection, schedule: Q01DX009 (ip), vehicle: saline with Tween-80
[7] = dose: 50.0 mg/kg/injection, schedule: Q01DX009 (ip), vehicle: Klucel (hydroxypropylcellulose) (HPC)
[8] = dose: 100.0 mg/kg/injection, schedule: Q01DX009 (ip), vehicle: Klucel (hydroxypropylcellulose) (HPC)
[9] = dose: 200.0 mg/kg/injection, schedule: Q01DX009 (ip), vehicle: Klucel (hydroxypropylcellulose) (HPC)
[10] = dose: 12.5 mg/kg/injection, schedule: Q01DX009 (ip), vehicle: saline
[11] = dose: 100.0 mg/kg/injection, schedule: Q04DX003 (ip), vehicle: Klucel (hydroxypropylcellulose) (HPC)
[12] = dose: 200.0 mg/kg/injection, schedule: Q04DX003 (ip), vehicle: Klucel (hydroxypropylcellulose) (HPC)
[13] = dose: 50.0 mg/kg/injection, schedule: Q01DX009 (ip), vehicle: saline
[14] = dose: 100.0 mg/kg/injection, schedule: Q01DX009 (ip), vehicle: saline
[15] = dose: 200.0 mg/kg/injection, schedule: Q01DX009 (ip), vehicle: saline

Measured: T/C

OCc1nc(-c2ccccc2)sc1-c1cnc2ccccc2n1
inactive: [1] 104 % of control | [2] 99 % of control | [3] 101 % of control

CC1(C)CC(=O)C2=C(C1)OC1=C(C(=O)CC(C)(C)C1)C2c1cccc([N+](=O)[O-])c1
inactive: dose: 25.0 mg/kg/injection, schedule: Q01DX009 (ip), vehicle: saline with Tween-80 104 % of control and 95 % of control | [4] 100 % of control and 93 % of control | [5] 93 % of control and 94 % of control | [6] 93 % of control and 95 % of control

O=C(/C=C\N(c1ccccc1)c1ccccc1)c1ccccc1
inactive: [4] 90 % of control | [5] 93 % of control | [6] 94 % of control

Cc1cc2n(n1)C(c1ccccc1)=C(c1ccccc1)OC2(c1ccccc1)c1ccccc1
inactive: dose: 50.0 mg/kg/injection, schedule: Q04DX002 (ip), vehicle: Klucel (hydroxypropylcellulose) (HPC) 101 % of control | [1] 97 % of control | [2] 97 % of control | [3] 98 % of control

CCS(=O)O
inactive: dose: 60.0 mg/kg/injection, schedule: Q01DX005 (ip), vehicle: saline 106 % of control | dose: 120.0 mg/kg/injection, schedule: Q01DX005 (ip), vehicle: saline 112 % of control | dose: 240.0 mg/kg/injection, schedule: Q01DX005 (ip), vehicle: saline 112 % of control

O=C1c2ccccc2C(=O)c2nc(CBr)c(CBr)nc21
inactive: dose: 5.0 mg/kg/injection, schedule: Q01DX005 (ip), vehicle: saline 100 % of control | dose: 10.0 mg/kg/injection, schedule: Q01DX005 (ip), vehicle: saline 100 % of control | dose: 20.0 mg/kg/injection, schedule: Q01DX005 (ip), vehicle: saline 97 % of control

Cc1cc(OC(=O)N(C)C)nc(SCC(=O)c2ccc(Cl)cc2)n1
inactive: [7] 99 % of control | [8] 103 % of control | [9] 107 % of control

CSCCC([NH-])C(=O)O.CSCCC([NH-])C(=O)O.[Ni+2] (stereo not given)
inactive: dose: 0.79 mg/kg/injection, schedule: Q01DX009 (ip), vehicle: saline 92 % of control | dose: 1.56 mg/kg/injection, schedule: Q01DX009 (ip), vehicle: saline 96 % of control | dose: 3.12 mg/kg/injection, schedule: Q01DX009 (ip), vehicle: saline 97 % of control | [10] 94 % of control

Cc1cc(C)nc(N/N=C/c2c(Cl)cccc2Cl)n1
inactive: dose: 50.0 mg/kg/injection, schedule: Q04DX003 (ip), vehicle: Klucel (hydroxypropylcellulose) (HPC) 99 % of control | [11] 99 % of control | [12] 97 % of control

N=c1ccn2c(n1)OC1C(O)C(CCl)OC12 (stereo not given)
inactive: dose: 6.25 mg/kg/injection, schedule: Q01DX009 (ip), vehicle: saline 108 % of control | [10] 111 % of control | dose: 25.0 mg/kg/injection, schedule: Q01DX009 (ip), vehicle: saline 106 % of control and 92 % of control | [13] 103 % of control and 106 % of control | [14] 100 % of control and 107 % of control | [15] 110 % of control and 117 % of control

Cc1cc(NS(=O)(=O)c2ccc(N=Nc3c(O)n(-c4ccccc4)n(-c4ccccc4)c3=O)cc2)no1
inactive: [7] 102 % of control | [8] 100 % of control | [9] 92 % of control

F[C](F)(F)[Hg][Br]
inactive: dose: 6.25 mg/kg/injection, schedule: Q04DX002 (ip), vehicle: saline 100 % of control | dose: 12.5 mg/kg/injection, schedule: Q04DX002 (ip), vehicle: saline 92 % of control | dose: 25.0 mg/kg/injection, schedule: Q04DX002 (ip), vehicle: saline 106 % of control

O=S(=O)(C#Cc1ccccc1)C(F)(F)C(F)(F)C(F)(F)C(F)(F)F
inactive: dose: 100.0 mg/kg/injection, schedule: Q01DX001 (ip), vehicle: saline 116 % of control | dose: 200.0 mg/kg/injection, schedule: Q01DX001 (ip), vehicle: saline 115 % of control | dose: 400.0 mg/kg/injection, schedule: Q01DX001 (ip), vehicle: saline 102 % of control

CSc1nc(SC)c2c(CO)c(Br)n(Cc3ccccc3)c2n1
inactive: dose: 100.0 mg/kg/injection, schedule: Q04DX002 (ip), vehicle: saline with Tween-80 98 % of control | dose: 200.0 mg/kg/injection, schedule: Q04DX002 (ip), vehicle: saline with Tween-80 94 % of control | dose: 400.0 mg/kg/injection, schedule: Q04DX002 (ip), vehicle: saline with Tween-80 88 % of control

c1cc2c(cc1CC1CCNC1)OCO2 (stereo not given)
inactive: dose: 5.0 mg/kg/injection, schedule: Q01DX009 (ip), vehicle: saline 95 % of control | dose: 10.0 mg/kg/injection, schedule: Q01DX009 (ip), vehicle: saline 100 % of control | dose: 20.0 mg/kg/injection, schedule: Q01DX009 (ip), vehicle: saline 95 % of control

O=C(O)c1cc(O)c(O)c(O)c1
inactive: dose: 14.0 mg/kg/injection, schedule: Q01DX009 (ip), vehicle: saline 105 % of control | dose: 22.0 mg/kg/injection, schedule: Q01DX009 (ip), vehicle: saline 100 % of control | dose: 35.0 mg/kg/injection, schedule: Q01DX009 (ip), vehicle: saline 95 % of control | [13] 103 % of control and 97 % of control | [14] 100 % of control and 101 % of control | dose: 100.0 mg/kg/injection, schedule: Q01DX009 (ip), vehicle: water 95 % of control | [11] 100 % of control | [15] 118 % of control and 96 % of control | dose: 200.0 mg/kg/injection, schedule: Q01DX009 (ip), vehicle: water 95 % of control | [12] 100 % of control | dose: 400.0 mg/kg/injection, schedule: Q01DX009 (ip), vehicle: saline 106 % of control and 111 % of control | dose: 400.0 mg/kg/injection, schedule: Q01DX009 (ip), vehicle: water 100 % of control | dose: 400.0 mg/kg/injection, schedule: Q04DX003 (ip), vehicle: Klucel (hydroxypropylcellulose) (HPC) 95 % of control | dose: 600.0 mg/kg/injection, schedule: Q01DX009 (ip), vehicle: saline 110 % of control and 111 % of control

O=C1OC2C(I)C3CC2C1C3c1ccccc1 (stereo not given)
inactive: dose: 50.0 mg/kg/injection, schedule: Q01DX005 (ip), vehicle: saline with Tween-80 105 % of control | dose: 100.0 mg/kg/injection, schedule: Q01DX005 (ip), vehicle: saline with Tween-80 103 % of control | dose: 200.0 mg/kg/injection, schedule: Q01DX005 (ip), vehicle: saline with Tween-80 105 % of control

CC(=O)/C(C=NCC(C)(CN=C/C(C(C)=O)=C(/C)O)CN=C/C(C(C)=O)=C(/C)O)=C(\C)O (stereo not given)
inactive: [7] 97 % of control | [8] 100 % of control | [9] 100 % of control

O=N[O-].O=N[O-].[I][Pt][I]
inactive: dose: 12.5 mg/kg/injection, schedule: Q01DX005 (ip), vehicle: saline 116 % of control and 117 % of control | dose: 25.0 mg/kg/injection, schedule: Q01DX005 (ip), vehicle: saline 124 % of control | dose: 50.0 mg/kg/injection, schedule: Q01DX005 (ip), vehicle: saline 105 % of control | dose: 100.0 mg/kg/injection, schedule: Q01DX005 (ip), vehicle: saline 124 % of control
